The results in this text go back to patent publication US8829195B2, “Compounds and compositions for inhibiting the activity of ABL1, ABL2 and BCR-ABL1” (Novartis AG, priority 2012, dated 2014).

Assay [1] addresses T1, ABL1 (64-515) (Homo sapiens, UniProt P00519).
T1 construct: 3.5 nM ABL (ABL(64-515), produced in-house from E. coli); His6 followed by a PreScission protease cleavage site (N, cleaved yes); made in house; host or cells: E. coli (BL21 (DE3) according to b733)
Description: Caliper ABL1 (64-515) microfluidic mobility shift assay. It counts as biochemical.
Description: All assays were performed in 384-well microtiter plates. Each assay plate contained 8-point serial dilutions for 40 test compounds, as well as four 8-point serial dilutions of staurosporine as a reference compound, plus 16 high and 16 low controls. Liquid handling and incubation steps were done on a Thermo CatX workstation equipped with Innovadyne Nanodrop Express. Between pipetting steps, tips were cleaned in wash cycles using wash buffer.
The assay plates were prepared by addition of 50 mL per well of compound solution in 90% DMSO. […] Plates with terminated kinase reactions were transferred to the Caliper LC3000 workstations for reading. Phosphorylated and unphosphorylated peptides were separated using the Caliper microfluidic mobility shift technology. Briefly, samples from terminated kinase reactions were applied to the chip. Analytes are transported through the chip by constant buffer flow and the migration of the substrate peptide is monitored by the fluorescence signal of its label. Phosphorylated peptide (product) and unphosphorylated peptide (substrate) are separated in an electric field by their charge/mass ratio. Kinase activities were calculated from the amounts of formed phospho-peptide. IC50 values were determined from percent inhibition values at different compound concentrations by non-linear regression analysis.
Preparation of compound dilutions: Test compounds were dissolved in DMSO (10 mM) and transferred into 1.4 mL flat bottom or V-shaped Matrix tubes carrying a unique 2D matrix. The stock solutions were stored at +2° C. if not used immediately. For the test procedure the vials were defrosted and identified by a scanner whereby a working sheet was generated that guided the subsequent working steps.
Compound dilutions were made in 96-well plates. This format enabled the assay of maximally 40 individual test compounds at 8 concentrations (single points) including 4 reference compounds. The dilution protocol included the production of “pre-dilution plates”, “master plates” and “assay plates”.
Pre-dilution plates: Polypropylene 96-well plates were used as pre-dilution plates. […] All dilution steps were done on a HamiltonSTAR robot.
These plates were used directly for the assay which was performed in a total volume of 9.05 μL.

Assay [2] deals with T1, ABL1 (64-515). The assay is described as follows: Radio ABL1 (64-515) radiometric filter-binding assay. In kind it is biochemical.
Description: Expression and purification of protein kinase—Expression and purification of human ABL was performed using standard expression purification procedures. […] The His-ABL was expressed in E. coli BL21 (DE3) and the ABL proteins were isolated by Ni-affinity on a Ni-NTA column (Qiagen). The His-tag was removed by PreScission protease (GE Healthcare) and the non-phosphoprylated ABL further purified on a Mono Q HR 10/10 (GE Healthcare, mono-phosphorylated ABL is about 10-20% of total ABL protein) and HiLoad 16/60 Superdex 200 size exclusion column (GE Healthcare).
For determination of ABL kinase activity, the radiometric filter-binding assay was used. […] 10 μL of enzyme (ranging between 5 nM to 20 nM) was added to initiate the reaction. Pre-incubation of enzyme with compounds (when stated) was performed by exposing the enzyme to compounds prior to addition of the substrate mixture (ATP and/or peptide substrate). […] Filter-plates were washed 3× with 0.5% H3PO4, followed by addition of 30 μL scintillation cocktail (Microscint, Perkin Elmer) per well and then analysed in a TopCount NXT scintillation counter (Perkin Elmer). Results were expressed as IC50 values.
A further assay concerns the target T2, Ba/F3-BCR-ABL1-WT cells (Homo sapiens, UniProt P00519).
T2 construct: fused on or other part: P11274 (Breakpoint cluster region protein)
Description: Ba/F3-BCR-ABL1-WT cell proliferation assay. In kind it is cell-based, murine. To be noted: 48 hours; read-out: Ba/F3-BCR-ABL1-WT IC50.

In assay [3] the target is T3, Ba/F3-BCR-ABL1-T315I cells (Homo sapiens, UniProt P00519, T315I, cells depend on it).
T3 construct: A similar approach was used to generate Ba/F3 cells that depend on a BCR-ABL1 variant in which threonine 315 is replaced with isoleucine; fused on or other part: P11274 (Breakpoint cluster region protein)
Description: Ba/F3-BCR-ABL1-T315I cell proliferation assay. In kind it is cell-based, murine. As to conditions: 48 hours; read-out: Ba/F3-BCR-ABL1-T315I IC50.

The mark [4] stands for this setting: comparison of ortho substitution on R3/R4 ring.

Description for Ba/F3-BCR-ABL1-WT cells: To generate Ba/F3 cells that depend on BCR-ABL1 expression for growth and survival, Ba/F3 cells were engineered to express BCR-ABL1 using retroviral transduction with a MSCV based retroviral vector containing a p210 BCR-ABLlexpression cassette. […] These cells are referred to as Ba/F3-BCR-ABL-WT.
Ba/F3-WT cells were maintained in RPMI1640 media with L-glutamine, HEPES (Lonza), 10% FBS (Gibco) and 5 ng/ml IL-3 (Calbiochem). Ba/F3-BCR-ABL1-WT cells and Ba/F3-BCR-ABL1-T315I cells were manitained in RPMI1640 media with L-glutamine, HEPES (Lonza) and 10% FBS (Gibco).
For each cell line, the cell density was adjusted to 50 000 cells/mL and 50 μL (2500 cells) added per well of a 384-well assay plate.
Test compounds were resuspended in DMSO at a concentration of 10 mM. A serial three-fold dilution of each compound with DMSO was performed in 384-well plates using the Janus Liquid Dispenser (PerkinElmer). Compound was delivered to the assay plates containing 2500 cells in a 50 μL volume via Acoustic delivery from an ATS-100 (EDC).
Cells were incubated at 37° C. in a humidified environment with 5% carbon dioxide for 48 hours. Britelite plus solution (Perkin Elmer) was prepared according to the manufacturer's instructions and 25 μL added to each well of the assay plate. […] The degree of luminescence correlates with the number of cells in each well. The effect of each inhibitor concentration can therefore be calculated and IC50 values generated.

For `O=C(Nc1ccc(OC(F)(F)Cl)cc1)c1ccc(N2CC[C@@H](O)C2)c(-c2ccn[nH]2)c1` [Example 20, (R)—N-(4-(Chlorodifluoromethoxy)phenyl)-4-(3-hydroxypyrrolidin-1-yl)-3-(1H-pyrazol-5-yl)benzamide], the results for the concentration for half-maximal inhibition (IC50) at ABL1 (64-515) [1] (Table of Biochemical Data) and at ABL1 (64-515) [2] were 0.4 nM and 1.3 nM, respectively.

For the compound `O=C(Nc1ccc(OC(F)(F)F)cc1Cl)c1cnc(N2CC[C@@H](O)C2)c(-c2ccn[nH]2)c1`, the IC50 at ABL1 (64-515) [1] (setting [4]) was determined as 1600 nM.

With `CC(C)[C@H](N)C(=O)O[C@@H]1CCN(c2ncc(C(=O)Nc3ccc(OC(F)(F)Cl)cc3)cc2-c2ccn[nH]2)C1` [Example 38], the results for the IC50 on ABL1 (64-515) [1] (Table of Biochemical Data) and on ABL1 (64-515) [2] were 2.5 nM and 4 nM, respectively.

Take `Cc1cc(-c2cc(C(=O)Nc3ccc(OC(F)(F)Cl)cc3)cnc2N2CC[C@@H](O)C2)[nH]n1` [Example 23, (R)—N-(4-(Chlorodifluoromethoxy)phenyl)-6-(3-hydroxypyrrolidin-1-yl)-5-(3-methyl-1H-pyrazol-5-yl)nicotinamide]: the results for the GI50 (on Ba/F3-BCR-ABL1-WT cells; in assay [3]) were 1.7 nM and 42 nM, respectively. The figures for the IC50 at ABL1 (64-515) [1] (Table of Biochemical Data) and at ABL1 (64-515) [2] were 0.5 nM and 7 nM, respectively.

`Cc1cn[nH]c1-c1cc(C(=O)Nc2ccc(OC(F)(F)F)cc2)cnc1N1CC[C@@H](O)C1` [Example 4, (R)-6-(3-Hydroxypyrrolidin-1-yl)-5-(4-methyl-1H-pyrazol-5-yl)-N-(4-(trifluoromethoxy)phenyl)nicotinamide]: the GI50 at Ba/F3-BCR-ABL1-WT cells amounted to 11.7 nM; in assay [3], 327 nM. Besides, the 50% inhibitory concentration (IC50) on ABL1 (64-515) [1] (Table of Biochemical Data) amounted to 1.3 nM; on ABL1 (64-515) [2], 3.4 nM.

`O=C(Nc1ccc(SC(F)(F)F)cc1)c1cnc(N2CC[C@H](CO)C2)c(-c2ccn[nH]2)c1` [Example 12, (S)-6-(3-(Hydroxymethyl)pyrrolidin-1-yl)-5-(1H-pyrazol-5-yl)-N-(4-((trifluoromethyl)thio)phenyl)nicotinamide]: the GI50 on Ba/F3-BCR-ABL1-WT cells was found to be 1.9 nM; in assay [3], 38 nM. For the same compound, the results for the IC50 at ABL1 (64-515) [1] (Table of Biochemical Data) and at ABL1 (64-515) [2] were 0.5 nM and 6 nM, respectively.

Take `Cc1cc(OC(F)(F)F)ccc1NC(=O)c1cnc(N2CC[C@@H](O)C2)c(-c2ccn[nH]2)c1`: on ABL1 (64-515) [1] (setting [4]), the IC50 is 1800 nM.

`O=C(Nc1ccc(OC(F)(F)F)cc1)c1cnc(N2CC[C@H](CO)C2)c(-c2ccn[nH]2)c1` [Example 7, (S)-6-(3-(Hydroxymethyl)pyrrolidin-1-yl)-5-(1H-pyrazol-5-yl)-N-(4-(trifluoromethoxy)phenyl)nicotinamide]: the GI50 on Ba/F3-BCR-ABL1-WT cells stood at 6 nM; in assay [3], 132 nM. For the same compound, the values for the IC50 on ABL1 (64-515) [1] (Table of Biochemical Data) and at ABL1 (64-515) [2] were 0.4 nM and < 3 nM, respectively.

As to `CC(F)(F)Oc1ccc(NC(=O)c2cnc(N3CC[C@@H](O)C3)c(-c3ccn[nH]3)c2)cc1` [Example 30, (R)—N-(4-(1,1-Difluoroethoxy)phenyl)-6-(3-hydroxypyrrolidin-1-yl)-5-(1H-pyrazol-5-yl)nicotinamide], the GI50 on Ba/F3-BCR-ABL1-WT cells is 31.8 nM; in assay [3], 715 nM. Further, the values for the concentration for half-maximal inhibition (IC50) at ABL1 (64-515) [1] (Table of Biochemical Data) and at ABL1 (64-515) [2] were 4.3 nM and 0.4 nM, respectively.

On to `O=C(Nc1ccc(S(F)(F)(F)(F)F)cc1)c1cnc(N2CC[C@@H](O)C2)c(-c2ccn[nH]2)c1` [Example 17, (R)-6-(3-Hydroxypyrrolidin-1-yl)-N-(4-(pentafluorosulfanyl)phenyl)-5-(1H-pyrazol-5-yl)nicotinamide], for which the GI50 turned out to be 15.5 nM at Ba/F3-BCR-ABL1-WT cells and 199 nM in assay [3]. Also, the IC50 on ABL1 (64-515) [1] (Table of Biochemical Data) was 2.4 nM; at ABL1 (64-515) [2], 3 nM.

`O=C(Nc1ccc(OC(F)(F)Cl)cc1)c1cnc(N2CC[C@H](CO)C2)c(-c2ccn[nH]2)c1` [Example 10, (S)—N-(4-(Chlorodifluoromethoxy)phenyl)-6-(3-(hydroxymethyl)pyrrolidin-1-yl)-5-(1H-pyrazol-5-yl)nicotinamide]: the GI50 at Ba/F3-BCR-ABL1-WT cells was 1.9 nM; in assay [3] it was 44 nM. Besides, the concentration for half-maximal inhibition (IC50) at ABL1 (64-515) [1] (Table of Biochemical Data) was 0.3 nM; on ABL1 (64-515) [2] it was < 0.13 nM.

On to `O=C(Nc1ccc(SC(F)(F)F)nc1)c1cnc(N2CC[C@@H](O)C2)c(-c2ccn[nH]2)c1` [Example 32, (R)-6-(3-Hydroxypyrrolidin-1-yl)-5-(1H-pyrazol-5-yl)-N-(6-((trifluoromethyl)thio)pyridin-3-yl)nicotinamide], for which the IC50 on ABL1 (64-515) [1] (Table of Biochemical Data) is 13 nM; at ABL1 (64-515) [2], 3 nM.

`O=C(Nc1ccc(OC(F)(F)Cl)cc1)c1cnc(N2CC[C@@H](OP(=O)(O)O)C2)c(-c2ccn[nH]2)c1` [Example 39, (R)-1-(5-(4-(Chlorodifluoromethoxy)phenyl)carbamoyl)-3-(1H-pyrazol-5-yl)pyridin-2-yl)pyrrolidin-3-yl dihydrogen phosphate]: the figures for the IC50 on ABL1 (64-515) [1] (Table of Biochemical Data) and on ABL1 (64-515) [2] were 1.3 nM and 3 nM, respectively.

For `O=C(Nc1ccc(OC(F)(F)Cl)cc1)c1cnc(N2CCC(C(=O)O)C2)c(-c2ccn[nH]2)c1` (centres unmarked) [Example 37], the 50% inhibitory concentration (IC50) at ABL1 (64-515) [1] (Table of Biochemical Data) came out at 0.5 nM.

Take `O=C(Nc1ccc(OC(F)(F)F)cc1)c1cnc(N2CC[C@@H](OP(=O)(O)O)C2)c(-c2ccn[nH]2)c1` [Example 40, (R)-1-(3-(1H-Pyrazol-5-yl)-5-(4-(trifluoromethoxy)phenyl)carbamoyl)pyridin-2-yl)pyrrolidin-3-yl dihydrogen phosphate]: at ABL1 (64-515) [1] (Table of Biochemical Data), the IC50 came to 2.1 nM.

For `Cn1cc(-c2cc(C(=O)Nc3ccc(OC(F)(F)F)cc3)cnc2N2CC[C@@H](O)C2)cn1` [Example 6, (R)-6-(3-Hydroxypyrrolidin-1-yl)-5-(1-methyl-1H-pyrazol-4-yl)-N-(4-(trifluoromethoxy)phenyl)nicotinamide], the IC50 was found to be 3.2 nM on ABL1 (64-515) [1] (Table of Biochemical Data) and 3 nM on ABL1 (64-515) [2].

Take `O=C(Nc1ccc(OC(F)(F)Cl)cc1)c1cnc(N2CC[C@@H](O)C2)c(-c2cnn(CCO)c2)c1` [Example 29, (R)—N-(4-(Chlorodifluoromethoxy)phenyl)-5-(1-(2-hydroxyethyl)-1H-pyrazol-4-yl)-6-(3-hydroxypyrrolidin-1-yl)nicotinamide]: the 50% inhibitory concentration (IC50) at ABL1 (64-515) [1] (Table of Biochemical Data) is 0.9 nM; at ABL1 (64-515) [2] it was 9 nM.

On to `O=C(Nc1ccc(OC(F)(F)F)cc1)c1ccc(N2CC[C@@H](O)C2)c(-c2ccn[nH]2)c1` [Example 1, (R)-4-(3-Hydroxypyrrolidin-1-yl)-3-(1H-pyrazol-5-yl)-N-(4-(trifluoromethoxy)phenyl)benzamide], for which the values for the IC50 at ABL1 (64-515) [1] (Table of Biochemical Data) and at ABL1 (64-515) [2] were 2.2 nM and < 3 nM, respectively.

Turning to `Cn1nccc1-c1cc(C(=O)Nc2ccc(OC(F)(F)Cl)cc2)cnc1N1CC[C@@H](O)C1` [Example 27, (R)—N-(4-(Chlorodifluoromethoxy)phenyl)-6-(3-hydroxypyrrolidin-1-yl)-5-(1-methyl-1H-pyrazol-5-yl)nicotinamide], the IC50 amounted to 1.1 nM at ABL1 (64-515) [1] (Table of Biochemical Data) and 2 nM at ABL1 (64-515) [2].

For `Cc1cc(-c2cc(C(=O)Nc3ccc(OC(F)(F)Cl)cc3)ccc2N2CC[C@@H](O)C2)[nH]n1` [Example 22, (R)—N-(4-(Chlorodifluoromethoxy)phenyl)-4-(3-hydroxypyrrolidin-1-yl)-3-(3-methyl-1H-pyrazol-5-yl)benzamide], the concentration for half-maximal inhibition (IC50) at ABL1 (64-515) [1] (Table of Biochemical Data) was < 0.64 nM; on ABL1 (64-515) [2] it was 6 nM.

In the case of `COC(=O)C1CCN(c2ncc(C(=O)Nc3ccc(OC(F)(F)Cl)cc3)cc2-c2ccn[nH]2)C1` (centres unmarked) [Example 36, Methyl 1-(5-((4-(chlorodifluoromethoxy)phenyl)carbamoyl)-3-(1H-pyrazol-5-yl)pyridin-2-yl)pyrrolidine-3-carboxylate], the figures for the GI50 (at Ba/F3-BCR-ABL1-WT cells; in assay [3]) were 1.9 nM and 71 nM, respectively. At ABL1 (64-515) [1] (Table of Biochemical Data), the half-inhibitory concentration (IC50) was 2.1 nM.
